Experimental data reported in ChEMBL document CHEMBL5543092, “Design, synthesis, and biological characterization of proteolysis targeting chimera (PROTACs) for the ataxia telangiectasia and RAD3-related (ATR) kinase” (Eur J Med Chem, 2024).
Active and inactive are the calls of the source. The calls are words filed in the database; no cut-off is given here.

Tests used:
[1] = Plasma protein binding in human plasma; type: ADME, cell-free; details: read-out: PPB (converted)
[2] = target: T1, Protein cereblon/Serine/threonine-protein kinase ATR (Homo sapiens) (UniProt Q13535+Q96SW2); assay: PROTAC activity at ATR/CRBN in patient derived human MIA PaCa-2 cells assessed as reduction in irinotecan-induced p-CHK1 (S345) level at 2 uM measured after 24 hrs by immunoblot analysis relative to control; type: cell-based
T1 sequence (Q13535 whole entry, looked up): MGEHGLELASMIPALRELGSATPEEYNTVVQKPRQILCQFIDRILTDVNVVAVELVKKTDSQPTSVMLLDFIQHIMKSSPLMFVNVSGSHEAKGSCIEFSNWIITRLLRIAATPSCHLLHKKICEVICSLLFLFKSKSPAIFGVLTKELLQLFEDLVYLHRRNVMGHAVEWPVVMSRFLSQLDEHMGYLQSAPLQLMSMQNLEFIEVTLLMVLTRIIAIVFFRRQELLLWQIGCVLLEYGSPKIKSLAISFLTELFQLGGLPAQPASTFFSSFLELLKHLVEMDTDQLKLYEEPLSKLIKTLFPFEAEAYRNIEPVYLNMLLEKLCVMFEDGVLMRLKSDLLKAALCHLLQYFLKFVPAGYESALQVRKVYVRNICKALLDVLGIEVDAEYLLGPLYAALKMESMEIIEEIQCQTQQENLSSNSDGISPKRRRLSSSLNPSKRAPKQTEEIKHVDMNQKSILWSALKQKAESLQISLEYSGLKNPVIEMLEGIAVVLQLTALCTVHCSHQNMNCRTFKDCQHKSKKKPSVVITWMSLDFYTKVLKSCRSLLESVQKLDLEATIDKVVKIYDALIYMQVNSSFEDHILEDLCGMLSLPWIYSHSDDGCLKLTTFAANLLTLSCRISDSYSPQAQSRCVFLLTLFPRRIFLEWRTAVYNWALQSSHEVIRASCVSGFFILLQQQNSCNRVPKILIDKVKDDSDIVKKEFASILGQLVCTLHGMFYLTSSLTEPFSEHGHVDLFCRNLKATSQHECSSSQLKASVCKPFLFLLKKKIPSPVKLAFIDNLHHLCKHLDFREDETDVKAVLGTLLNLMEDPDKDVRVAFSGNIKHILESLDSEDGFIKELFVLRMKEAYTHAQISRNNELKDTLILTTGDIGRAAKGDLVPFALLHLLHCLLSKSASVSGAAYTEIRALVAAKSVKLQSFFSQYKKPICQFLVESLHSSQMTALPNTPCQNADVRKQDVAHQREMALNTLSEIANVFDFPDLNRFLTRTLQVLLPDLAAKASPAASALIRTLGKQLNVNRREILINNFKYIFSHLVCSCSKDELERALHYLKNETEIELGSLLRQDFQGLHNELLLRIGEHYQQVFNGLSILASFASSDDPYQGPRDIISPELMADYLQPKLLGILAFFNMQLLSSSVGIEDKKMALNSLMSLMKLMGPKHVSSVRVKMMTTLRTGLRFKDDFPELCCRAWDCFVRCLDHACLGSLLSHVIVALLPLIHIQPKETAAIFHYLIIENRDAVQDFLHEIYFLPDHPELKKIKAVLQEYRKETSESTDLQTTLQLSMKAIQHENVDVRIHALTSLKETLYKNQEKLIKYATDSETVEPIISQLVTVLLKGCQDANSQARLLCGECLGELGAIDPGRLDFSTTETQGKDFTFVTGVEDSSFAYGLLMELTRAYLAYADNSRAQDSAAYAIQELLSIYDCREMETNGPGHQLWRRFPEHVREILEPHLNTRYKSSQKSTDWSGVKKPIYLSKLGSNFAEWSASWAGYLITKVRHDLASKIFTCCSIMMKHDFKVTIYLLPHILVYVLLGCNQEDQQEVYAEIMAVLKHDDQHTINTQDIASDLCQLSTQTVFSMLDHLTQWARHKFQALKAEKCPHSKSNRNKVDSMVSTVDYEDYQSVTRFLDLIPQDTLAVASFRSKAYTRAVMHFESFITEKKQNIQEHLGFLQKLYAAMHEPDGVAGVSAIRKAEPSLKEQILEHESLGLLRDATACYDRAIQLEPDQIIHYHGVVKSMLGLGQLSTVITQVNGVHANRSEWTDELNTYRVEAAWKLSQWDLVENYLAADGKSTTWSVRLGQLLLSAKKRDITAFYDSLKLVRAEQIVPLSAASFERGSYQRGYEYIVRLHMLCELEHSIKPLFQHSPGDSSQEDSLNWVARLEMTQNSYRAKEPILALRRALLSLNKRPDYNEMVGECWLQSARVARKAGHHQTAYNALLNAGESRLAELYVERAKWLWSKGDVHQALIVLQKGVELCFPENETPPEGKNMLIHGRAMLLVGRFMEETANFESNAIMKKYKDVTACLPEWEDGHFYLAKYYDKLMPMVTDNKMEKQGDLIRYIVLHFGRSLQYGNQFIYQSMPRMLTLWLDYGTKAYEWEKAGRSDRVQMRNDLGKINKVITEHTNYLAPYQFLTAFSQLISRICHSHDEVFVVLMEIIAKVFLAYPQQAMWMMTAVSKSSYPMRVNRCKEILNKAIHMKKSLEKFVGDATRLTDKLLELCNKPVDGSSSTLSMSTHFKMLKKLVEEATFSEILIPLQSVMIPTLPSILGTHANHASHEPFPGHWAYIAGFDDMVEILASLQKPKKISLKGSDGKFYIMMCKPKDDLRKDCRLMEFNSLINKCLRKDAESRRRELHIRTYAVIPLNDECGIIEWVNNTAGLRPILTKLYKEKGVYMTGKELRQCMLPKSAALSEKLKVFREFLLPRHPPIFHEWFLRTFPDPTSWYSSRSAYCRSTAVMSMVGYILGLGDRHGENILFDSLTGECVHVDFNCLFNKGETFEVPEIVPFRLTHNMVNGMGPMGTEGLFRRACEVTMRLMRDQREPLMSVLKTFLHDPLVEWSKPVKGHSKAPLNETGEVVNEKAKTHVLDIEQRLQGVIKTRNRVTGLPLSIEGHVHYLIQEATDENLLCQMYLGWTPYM
T1 sequence (Q96SW2 whole entry, looked up): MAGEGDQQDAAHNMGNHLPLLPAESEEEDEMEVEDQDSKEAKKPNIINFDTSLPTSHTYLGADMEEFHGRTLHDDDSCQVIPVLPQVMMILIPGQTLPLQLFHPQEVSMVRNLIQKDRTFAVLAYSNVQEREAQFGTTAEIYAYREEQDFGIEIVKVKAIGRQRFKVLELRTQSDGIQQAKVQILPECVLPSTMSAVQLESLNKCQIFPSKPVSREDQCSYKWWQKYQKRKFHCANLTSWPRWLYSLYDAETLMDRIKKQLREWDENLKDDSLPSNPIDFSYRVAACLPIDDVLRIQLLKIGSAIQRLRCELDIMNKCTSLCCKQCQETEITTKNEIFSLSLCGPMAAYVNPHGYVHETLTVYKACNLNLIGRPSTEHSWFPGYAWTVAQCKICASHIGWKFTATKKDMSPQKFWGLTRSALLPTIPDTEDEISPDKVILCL

[3] = target: T1, Protein cereblon/Serine/threonine-protein kinase ATR (Homo sapiens); assay: PROTAC activity at ATR/CRBN in patient derived human MIA PaCa-2 cells assessed as reduction in p-ATR (T1989) level at 2 uM measured after 24 hrs by immunoblot analysis relative to control; type: cell-based
[4] = target: T1, Protein cereblon/Serine/threonine-protein kinase ATR (Homo sapiens); assay: PROTAC activity at ATR/CRBN in patient derived human MIA PaCa-2 cells assessed as reduction in protein level at 2 uM measured after 24 hrs by immunoblot analysis relative to irinotecan; type: cell-based; set-up: scale not given: the % may be the effect or the level left
MIA PaCa-2 [5] = assay: Induction of apoptosis in human MIA PaCa-2 cells assessed as cell death at 2 uM incubated for 24 hrs by Annexin-V/PI based flow cytometry; type: functional
[6] = target: T1, Protein cereblon/Serine/threonine-protein kinase ATR (Homo sapiens); assay: PROTAC activity at ATR/CRBN in patient derived human MIA PaCa-2 cells assessed as reduction in protein level at 2 uM measured after 24 hrs by immunoblot analysis relative to untreated control; type: cell-based; set-up: scale not given: the % may be the effect or the level left
[7] = Chemical stability of the compound in at pH 7.4 measured at 48 hrs by HPLC based non-enzymatic stability assay; type: physicochemical; details: buffer, read-out: Stability
[8] = target: T1, Protein cereblon/Serine/threonine-protein kinase ATR (Homo sapiens); assay: PROTAC activity at ATR/CRBN in human HeLa cells assessed as reduction in p-ATR level at 500 nM measured after 24 hrs by immunoblot analysis relative to untreated control; type: cell-based; set-up: scale not given: the % may be the effect or the level left
[9] = Chemical stability of the compound in at pH 7.4 measured at 72 hrs by HPLC based non-enzymatic stability assay; type: physicochemical; details: buffer, read-out: Stability
[10] = Chemical stability of the compound in at pH 7.4 measured at 6 hrs by HPLC based non-enzymatic stability assay; type: physicochemical; details: buffer, read-out: Stability
HEK293 = assay: Cytotoxicity against human HEK293 cells assessed as cell viability at 50 uM incubated for 24 hrs by Alamar Blue reagent based assay relative to control; type: functional; details: read-out: Activity
[11] = target: T1, Protein cereblon/Serine/threonine-protein kinase ATR (Homo sapiens); assay: PROTAC activity at ATR/CRBN in patient derived human MIA PaCa-2 cells assessed as reduction in protein level at 2 uM measured after 3 hrs in presence of 50 nM bortezomib by immunoblot analysis; type: cell-based
ATR/ATRIP = ATR/ATRIP (Homo sapiens, UniProt Q13535); assay: Inhibition of human ATR/ATRIP complex using GST-cMyc-p53 substrate measured after 30 mins by HTRF based non-radioactive in vitro assay; type: protein-complex assay
Chain of ATR/ATRIP (Q13535 whole entry): as the sequence (Q13535 whole entry, looked up) above
Chain of ATR/ATRIP (Q8WXE1 whole entry, further chain): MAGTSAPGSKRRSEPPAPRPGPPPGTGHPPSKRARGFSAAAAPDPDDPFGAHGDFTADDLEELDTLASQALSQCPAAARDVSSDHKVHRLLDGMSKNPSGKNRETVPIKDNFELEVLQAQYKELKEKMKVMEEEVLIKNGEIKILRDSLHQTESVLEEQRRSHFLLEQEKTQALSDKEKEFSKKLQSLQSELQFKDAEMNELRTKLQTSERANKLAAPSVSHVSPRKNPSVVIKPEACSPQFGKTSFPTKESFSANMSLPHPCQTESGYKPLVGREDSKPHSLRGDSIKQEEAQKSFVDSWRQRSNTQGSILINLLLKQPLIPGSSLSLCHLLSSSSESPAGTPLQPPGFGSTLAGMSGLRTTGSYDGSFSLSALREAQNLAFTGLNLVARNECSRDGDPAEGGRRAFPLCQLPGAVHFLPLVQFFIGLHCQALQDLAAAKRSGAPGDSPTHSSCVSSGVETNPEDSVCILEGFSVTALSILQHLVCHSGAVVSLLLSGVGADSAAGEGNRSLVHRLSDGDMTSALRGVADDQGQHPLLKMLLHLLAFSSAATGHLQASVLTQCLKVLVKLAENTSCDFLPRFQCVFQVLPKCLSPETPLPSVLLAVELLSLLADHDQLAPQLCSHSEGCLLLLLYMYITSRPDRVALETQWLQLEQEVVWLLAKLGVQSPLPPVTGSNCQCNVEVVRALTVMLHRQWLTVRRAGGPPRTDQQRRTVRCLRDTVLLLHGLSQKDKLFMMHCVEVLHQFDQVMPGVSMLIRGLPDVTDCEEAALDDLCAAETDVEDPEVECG

MIA PaCa-2 [12] = assay: Effect on GSPT1 expression in human MIA PaCa-2 cells at 0.5 to 2 uM incubated for 24 hrs by immunoblot analysis; type: functional, cell-based; details: dose 0.5-2 µM
[13] = Chemical stability of the compound in at pH 7.4 measured at 24 hrs by HPLC based non-enzymatic stability assay; type: physicochemical; details: buffer, read-out: Stability
[14] = target: T1, Protein cereblon/Serine/threonine-protein kinase ATR (Homo sapiens); assay: PROTAC activity at ATR/CRBN in human HeLa cells assessed as reduction in protein level at 500 nM measured after 24 hrs by immunoblot analysis relative to untreated control; type: cell-based; set-up: scale not given: the % may be the effect or the level left
HeLa [15] = assay: Effect on DNA-PKcs expression in human HeLa cells at 500 nM incubated for 24 hrs by immunoblot analysis; type: functional, cell-based
[16] = target: T1, Protein cereblon/Serine/threonine-protein kinase ATR (Homo sapiens); assay: PROTAC activity at ATR/CRBN in patient derived human MIA PaCa-2 cells assessed as reduction in protein level at 500 nM measured after 24 hrs by immunoblot analysis relative to untreated control; type: cell-based; set-up: scale not given: the % may be the effect or the level left
HeLa [17] = assay: Effect on ATM expression in human HeLa cells at 500 nM incubated for 24 hrs by immunoblot analysis; type: functional, cell-based
[18] = target: T1, Protein cereblon/Serine/threonine-protein kinase ATR (Homo sapiens); assay: PROTAC activity at ATR/CRBN in patient derived human MIA PaCa-2 cells assessed as reduction in protein level at 2 uM measured after 3 hrs in presence of 10 uM MG132 by immunoblot analysis; type: cell-based
[19] = Chemical stability of the compound in at pH 7.4 measured at 12 hrs by HPLC based non-enzymatic stability assay; type: physicochemical; details: buffer, read-out: Stability
[20] = Plasma stability in human plasma assessed as compound remaining at 20 uM measured after 24 hrs by HPLC analysis; type: ADME, cell-free; details: read-out: Stability
MIA PaCa-2 [21] = assay: Effect on CRBN expression in patient derived siCRBN transfected human MIA PaCa-2 cells at 2 uM measured after 24 hrs by immunoblot analysis; type: functional, cell-based
[22] = target: T1, Protein cereblon/Serine/threonine-protein kinase ATR (Homo sapiens); assay: PROTAC activity at ATR/CRBN in patient derived human MIA PaCa-2 cells assessed as reduction in protein level at 0.1 to 5 uM measured after 24 hrs by immunoblot analysis relative to untreated control; type: cell-based; details: dose 0.1-5 µM
[23] = target: T2, von Hippel-Lindau disease tumor suppressor/Serine/threonine-protein kinase ATR (Homo sapiens) (UniProt Q13535+P40337); assay: PROTAC activity at ATR/VHL in patient derived human MIA PaCa-2 cells assessed as protein degradation at 2 uM measured after 24 hrs by immunoblot analysis relative to untreated control; type: cell-based
T2 sequence (P40337 whole entry, looked up): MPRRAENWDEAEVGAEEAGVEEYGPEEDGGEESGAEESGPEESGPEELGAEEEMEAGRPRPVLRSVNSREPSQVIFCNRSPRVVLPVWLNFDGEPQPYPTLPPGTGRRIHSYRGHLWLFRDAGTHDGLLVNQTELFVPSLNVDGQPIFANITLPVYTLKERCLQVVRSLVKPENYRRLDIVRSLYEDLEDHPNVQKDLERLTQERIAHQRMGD
T2 sequence (Q13535 whole entry, looked up): as the sequence (Q13535 whole entry, looked up) above

[24] = target: T2, von Hippel-Lindau disease tumor suppressor/Serine/threonine-protein kinase ATR (Homo sapiens); assay: PROTAC activity at ATR/VHL in patient derived human MIA PaCa-2 cells assessed as protein degradation at 5 uM measured after 24 hrs by immunoblot analysis relative to untreated control; type: cell-based
[25] = target: T1, Protein cereblon/Serine/threonine-protein kinase ATR (Homo sapiens); assay: PROTAC activity at ATR/CRBN in patient derived human MIA PaCa-2 cells assessed as reduction in protein level at 1 uM measured after 24 hrs by immunoblot analysis relative to untreated control; type: cell-based

Work on `Nc1ncc(-c2ccc(S(=O)(=O)NCCCCCC(=O)NCCCC#Cc3cccc4c3CN(C3CCC(=O)NC3=O)C4=O)cc2)nc1C(=O)Nc1ccccc1` (configuration not stated) yielded a fraction unbound [1] of 0.106, a fold change (FC) [2] of 0.5 and a fold change (FC) [3] of 0.1. For the same compound, the Activity [4] was 80%, the Activity (MIA PaCa-2 [5]) was “inactive” and the Activity [6] was 40%. It also gave a remaining at 48 h [7] of 110%, an Activity [8] of 60% and a remaining at 72 h [9] of 115%. The remaining at 6 h [10] was 102%, the viability at 50 µM (HEK293) was 77.1% and the Activity [11] was “inactive”. For the same compound, the IC50 (ATR/ATRIP) was over 10000 nM, the Activity (MIA PaCa-2 [12]) was “inactive” and the remaining at 24 h [13] was 106%. The Activity [14] was 60%, the Activity (HeLa [15]) was “inactive” and the Activity [16] was 40%. For the same compound, the Activity (HeLa [17]) was “inactive”, the Activity [18] was “inactive” and the remaining at 12 h [19] was 104%. For the same compound, the remaining at 24 h, 20 µM [20] was 75% and the Activity (MIA PaCa-2 [21]) was “inactive”.

In the case of `Nc1ncc(-c2ccc(S(=O)(=O)NCCOCCOCCOCCC(=O)N3CCN(c4ccc5c(c4)C(=O)N(C4CCC(=O)NC4=O)C5=O)CC3)cc2)nc1C(=O)Nc1ccccc1` (configuration not stated), the Activity [6] is reported as “inactive”, the remaining at 48 h [7] is reported as 83% and the remaining at 72 h [9] is reported as 74%. The remaining at 6 h [10] was 101%, the viability at 50 µM (HEK293) was 75% and the remaining at 24 h [13] was 97%. The remaining at 12 h [19] was 100%.

Work on `CNCc1ccc(-c2nnc(-c3nc(-c4ccc(S(=O)(=O)NCCCCCC(=O)N5CCN(c6ccc7c(c6)C(=O)N(C6CCC(=O)NC6=O)C7=O)CC5)cc4)cnc3N)o2)cc1` (configuration not stated) yielded a remaining at 48 h [7] of 81%, a remaining at 72 h [9] of 71% and a remaining at 6 h [10] of 98%. The viability at 50 µM (HEK293) was 105%, the remaining at 24 h [13] was 92% and the Activity [22] was “inactive”. The remaining at 12 h [19] was 95%.

`Cc1ncsc1-c1ccc(CNC(=O)[C@@H]2C[C@@H](O)CN2C(=O)[C@@H](NC(=O)CCOCCOCCOCCNS(=O)(=O)c2ccc(-c3cnc(N)c(C(=O)Nc4ccccc4)n3)cc2)C(C)(C)C)cc1` showed a remaining at 48 h [7] of 103%, a remaining at 72 h [9] of 105% and a remaining at 6 h [10] of 100%. For the same compound, the viability at 50 µM (HEK293) was 45.7%, the Activity [23] was “inactive” and the remaining at 24 h [13] was 102%. For the same compound, the Activity [24] was “inactive” and the remaining at 12 h [19] was 100%.

`Nc1ncc(-c2ccc(S(=O)(=O)NCCCCCCC(=O)NCCOc3ccc(C4CCC(=O)NC4=O)cc3)cc2)nc1C(=O)Nc1ccccc1` (configuration not stated) gave a remaining at 48 h [7] of 102%, a remaining at 72 h [9] of 101% and a remaining at 6 h [10] of 101%. For the same compound, the viability at 50 µM (HEK293) was 95.7%, the remaining at 24 h [13] was 102% and the Activity [22] was “inactive”. It also gave a remaining at 12 h [19] of 103%.

For `CNS(=O)(=O)c1ccc(-c2cnc(N)c(C(=O)Nc3ccccc3)n2)cc1`, the fraction unbound [1] was 0.225, the remaining at 48 h [7] was 102% and the remaining at 72 h [9] was 104%. It also gave a remaining at 6 h [10] of 99%, a viability at 50 µM (HEK293) of 83.7% and an IC50 (ATR/ATRIP) of 1000 nM. For the same compound, the remaining at 24 h [13] was 100%, the remaining at 12 h [19] was 100% and the remaining at 24 h, 20 µM [20] was over 92%.

With `Nc1ncc(-c2ccc(S(=O)(=O)NCCCCCC(=O)N3CCN(c4ccc5c(c4)C(=O)N(C4CCC(=O)NC4=O)C5=O)CC3)cc2)nc1-c1nnc(-c2ccccc2)o1` (configuration not stated) the remaining at 48 h [7] was 80%, the remaining at 72 h [9] was 73% and the remaining at 6 h [10] was 96%. For the same compound, the viability at 50 µM (HEK293) was 85.6%, the remaining at 24 h [13] was 90% and the Activity [22] was “inactive”. The remaining at 12 h [19] was 92%.

Compound `Nc1ncc(-c2ccc(S(=O)(=O)NCCCCCC(=O)NCC#Cc3cccc4c3CN(C3CCC(=O)NC3=O)C4=O)cc2)nc1-c1nnc(-c2ccccc2)o1` (configuration not stated) has an Activity [6] of 40%, a remaining at 48 h [7] of 106% and a remaining at 72 h [9] of 106%. For the same compound, the remaining at 6 h [10] was 108%, the viability at 50 µM (HEK293) was 70.5% and the remaining at 24 h [13] was 105%. The remaining at 12 h [19] was 105%.

For `Nc1ncc(-c2ccc(S(=O)(=O)NCCCCCCC(=O)NCCCC#Cc3cccc4c3CN(C3CCC(=O)NC3=O)C4=O)cc2)nc1C(=O)Nc1ccccc1` (configuration not stated), the Activity [25] was “Active”, the remaining at 48 h [7] was 105% and the remaining at 72 h [9] was 109%. For the same compound, the remaining at 6 h [10] was 102%, the viability at 50 µM (HEK293) was 109% and the remaining at 24 h [13] was 105%. The remaining at 12 h [19] was 103%.
